# According to patent US20070219268A1, “Anti-cancer activity augmentation compounds and formulations and methods of use thereof” (BioNumerik Pharmaceuticals, Inc., priority 2006, published 2007):
# Entries after “also recorded” stand apart in the source; their conditions may differ.
# Tests used:
# [1] = biological target: T1, thioredoxin reductase (TRR) (Bos taurus, UniProt O62768); experiment: NADPH oxidation at 340 nm by TRR in the absence of TRX; type: biochemical, bovine
# T1 sequence (O62768 1-499): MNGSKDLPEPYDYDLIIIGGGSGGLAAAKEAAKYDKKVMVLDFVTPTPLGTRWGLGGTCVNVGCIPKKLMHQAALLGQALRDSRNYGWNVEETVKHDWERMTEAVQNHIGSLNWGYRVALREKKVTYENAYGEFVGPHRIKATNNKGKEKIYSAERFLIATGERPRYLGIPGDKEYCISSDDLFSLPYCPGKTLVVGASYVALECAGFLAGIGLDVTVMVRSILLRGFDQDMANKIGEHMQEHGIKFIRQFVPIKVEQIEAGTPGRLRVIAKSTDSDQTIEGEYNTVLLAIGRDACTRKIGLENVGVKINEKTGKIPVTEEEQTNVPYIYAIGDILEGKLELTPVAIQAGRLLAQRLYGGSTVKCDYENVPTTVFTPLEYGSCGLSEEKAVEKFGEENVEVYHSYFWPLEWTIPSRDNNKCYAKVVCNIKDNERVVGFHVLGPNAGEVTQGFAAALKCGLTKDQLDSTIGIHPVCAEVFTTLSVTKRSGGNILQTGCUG
# Procedure: (§1) The activity of TRR and TRX was determined by following NADPH oxidation at 340 nm according to the previously reported method. See, Luthman, M., and Holmgren, A. Rat liver thioredoxin and thioredoxin reductase: purification and characterization. Biochemistry 21:6628-6633 (1982). A typical assay mixture contained TR buffer (50 mM potassium phosphate, pH 7.0, 1 mM EDTA), 200 μM NADPH, 1.6 μg bovine TRR, and one or more of the following: 4.8 μM TRX, 86 μM insulin, and one of the disulfides described herein. All disulfides were added to reactions as 10× solutions in TR buffer. The total volume of each reaction was 0.1 mL. Reactions were initiated by the addition of TRR and were incubated at 25° C. for 40 min. The activity was calculated using a 4 min. linear portion of each reaction. Enzyme assays were carried out using either a Molecular Devices SpectraMaxPlus UV plate reader or a Varian Cary 100 UV-visible Spectrophotometer.
# (§2) Data was then collected and plotted in Microsoft Excel. Error calculations, and graphical representations were performed in Microsoft Excel and Kaleidograph (ver. 3.5). Nonlinear data was graphically rendered using Kaleidograph. ANOVA and other statistical analyses were performed using SAS (ver. 8.2). Unless otherwise noted, significance level was set at 0.05, and error bars represent actual experimental standard deviation.
# [2] = biological target: T2, glutathione-S-transferase (GST), m1-1 isotype (Homo sapiens, UniProt P09488); experiment: GST assay: conjugation of reduced glutathione to CDNB, absorbance at 340 nm; type: biochemical; conditions: difference of relative activity from 100%
# T2 construct: purchased
# T2 sequence (P09488 1-218): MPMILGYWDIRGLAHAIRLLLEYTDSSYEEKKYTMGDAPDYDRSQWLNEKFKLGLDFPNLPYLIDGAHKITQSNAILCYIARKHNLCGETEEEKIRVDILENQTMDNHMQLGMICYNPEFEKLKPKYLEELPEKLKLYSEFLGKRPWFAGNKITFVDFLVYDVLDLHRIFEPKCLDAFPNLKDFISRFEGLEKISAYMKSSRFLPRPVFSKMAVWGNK
# Text: The following experiments were designed to determine if Tavocept™ has an inhibitory or stimulatory effect on GST. […] An in vitro assay for GST has been developed and reported. See, Meyer, D. J. and Ketterer, B., Purification of soluble human glutathione S-transferases. Methods Enzymol. 252:53-65 (1995). This assay monitors the conjugation of reduced glutathione to 1-chloro-2,4-dinitrobenzene (CDNB), as illustrated in Reaction Scheme II, below.
# Reduced thiol forms a conjugate with CDNB (extinction coefficient=9600 M^−1 cm^−1), which is detected at 340 nm. Stock solutions of GSH, CDNB, Tavocept™ were prepared by dissolving the reagent in sterile water at the concentrations listed below prior to use. […] Slopes were measured in the linear range of the assay (i.e., typically between 5 to 10 min.). In assays where the effect of Tavocept™ on GST activity was measured, 20 μL of either a 500 mM, 166.7 mM, or 55.6 mM stock solution of Tavocept™ was added to standard reactions using 1 mM GSH as the enzyme substrate. […]
# Raw data was obtained on a Cary 100 spectrophotometer. […] No absorbance values were collected during the process of enzyme addition. […] It was during this time that reaction rates (i.e., slopes of change in absorbance with time) were measured using the Cary 100 software. […]
# glutaredoxin = biological target: T3, glutaredoxin (Homo sapiens, UniProt P35754); experiment: Glutaredoxin assay in the presence of reduced glutathione and glutathione reductase; type: biochemical
# T3 sequence (P35754 1-106): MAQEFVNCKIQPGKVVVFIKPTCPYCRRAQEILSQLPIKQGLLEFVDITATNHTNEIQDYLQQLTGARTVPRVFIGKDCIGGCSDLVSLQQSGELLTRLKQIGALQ
# Text: In addition to the absence of interference with anti-cancer activity, results from in vivo studies have shown that Tavocept™ may elicit the restoration of apoptotic sensitivity in tumor cells through thioredoxin- and glutaredoxin-mediated mechanisms and this may be an important element of its effectiveness as a chemotherapeutic agent.
# thioredoxin (TRX) = biological target: T4, thioredoxin (TRX) (Homo sapiens, UniProt P10599); experiment: NADPH oxidation at 340 nm by TRR in the presence of TRX; type: biochemical
# T4 sequence (P10599 1-105): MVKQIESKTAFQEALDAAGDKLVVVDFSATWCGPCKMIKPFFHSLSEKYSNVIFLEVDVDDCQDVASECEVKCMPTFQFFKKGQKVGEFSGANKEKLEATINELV
# Procedure: as §1, §2
# [3] = based on magnitude and concentration-dependence of oxidation responses
compound,measurement,setting,value
"O=S(=O)([O-])CCSSCCS(=O)(=O)[O-].[Na+].[Na+] [Tavocept™, disodium 2,2′-dithio-bis-ethane sulfonate]",substrate for TRR,[1]; [3],not for TRR
same,NADPH oxidation by TRR in the absence of TRX,"[1]; no TRX, 200 μM NADPH, 25° C.",indistinguishable from background
same,Percent Inhibition,[2]; 1.1 mM Tavocept,5.6%
same,Percent Inhibition,[2]; 3.3 mM Tavocept,39%
same,activity with glutaredoxin,glutaredoxin,substrate-like activity
same,NADPH oxidation by TRR in the presence of TRX,"thioredoxin (TRX); 4.8 μM TRX, 200 μM NADPH, 25° C.",concentration-dependent increase
same,substrate for TRX,thioredoxin (TRX); [3],most likely a substrate for TRX; also recorded: substrate for thioredoxin
